Like-named read-outs stand apart in the source and are kept apart here.
Key:
[1] = target: (α1)2β1γδ nAChR (Tetronarce californica, UniProt P02710+P02714+P02718); assay: Competition binding assay using; design: species or system Torpedo californica
[2] = target: α4β2* nAChR (Rattus norvegicus, UniProt P09483+P12390); assay: Competition binding assay using
[3] = target: α3β4*; details: read-out: α3β4* Ki, cited from earlier work
[4] = target: α4β2*; details: read-out: α4β2* Ki, cited from earlier work
[5] = target: α7*; details: read-out: α7* Ki, cited from earlier work
[6] = target: α7 nAChR (Homo sapiens, UniProt P36544); assay: Two-electrode voltage clamp, nAChRs expressed in Xenopus oocytes; format: cell-based; details: 1 or 10 µM, relative to ACh control; co-applied at 1 µM with ACh
[7] = target: α3β4 nAChR (Homo sapiens, UniProt P30926+P32297); assay: as above; format: cell-based; details: 1 or 10 µM, relative to ACh control; co-applied at 1 µM with ACh
[8] = target: (α1)2β1γδ; details: read-out: (α1)2β1γδ Ki, cited from earlier work
[9] = target: muscle nAChR α1β1εδ (Mus musculus, UniProt P02716+P04756+P20782); assay: Two-electrode voltage clamp, nAChRs expressed in Xenopus oocytes; format: cell-based; details: 1 or 10 µM, relative to ACh control; co-applied at 1 µM with ACh

CS(=O)(=O)N1C[C@@H]2CNC[C@@H](C2)C1 [Compound 34, (1R,5S)-3-(methylsulfonyl)-3,7-diazabicyclo[3.3.1]nonane]
Ki [1]: > 10000 nM

O=C(N1CCC(Cc2ccccc2)CC1)N1C[C@@H]2CNC[C@@H](C2)C1 [Compound 69, (1R,5S)-3,7-diazabicyclo[3.3.1]nonan-3-yl(4-benzylpiperidin-1-yl)methanone]
Ki [1]: > 5000 nM

CC(=O)N1C[C@@H]2C[C@@H](CN(C)C2)C1 [Compound 70, 1-((1R,5S)-7-methyl-3,7-diazabicyclo[3.3.1]nonan-3-yl)ethanone]
fold lower affinity for the α4β2* subtype ([2]; compared to acetylbispidine 8): 35 fold

O=C1CCCC2[C@H]3CNC[C@H](C3)CN12 (some centres unmarked) [Compound 6, tetrahydrocytisine]
Ki ([3]; ref [44]): 385 ± 6 nM
Ki ([4]; ref [44]): 17 nM
Ki ([5]; ref [44]): 2000 nM

O=C(C1CCCC1)N1C[C@@H]2CNC[C@@H](C2)C1.O=C(O)/C=C/C(=O)O [Compound 43, (1R,5S)-3,7-diazabicyclo[3.3.1]nonan-3-yl(cyclopentyl)methanone]
functional profile at α7 [6]: agonism
functional profile at α3β4* [7]: Possible agonistic effects

CC(=O)N1C[C@@H]2CNC[C@@H](C2)C1.O=C(O)/C=C/C(=O)O [Compound 8, (1R, 5S)-1-(3,7-diazabicyclo[3.3.1]nonan-3-yl)ethanone]
functional profile at α7 [6]: agonism

O=c1cccc2n1C[C@@H]1CNC[C@H]2C1 [3 (Cyt), cytisine]
Ki ([4]; ref [41],[44],[45]): 0.122 nM

O=C(N1CCCC1)N1C[C@@H]2CNC[C@@H](C2)C1.O=C(O)/C=C/C(=O)O [Compound 67, (1R,5S)-3,7-diazabicyclo[3.3.1]nonan-3-yl(pyrrodin-1-yl)methanone]
affinity for the α4β2* subtype in words [2]: not active
Ki [1]: > 10000 nM

O=C(O)/C=C/C(=O)O.O=C(c1cccc(Cl)c1)N1C[C@@H]2CNC[C@@H](C2)C1 [Compound 22, (1R,5S)-3,7-diazabicyclo[3.3.1]nonan-3-yl(3-chlorophenyl)methanone]
affinity for the α4β2* subtype in words [2]: inactive

CN1C[C@@H]2C[C@H](C1)C1CCCC(=O)N1C2 (some centres unmarked) [Compound 7]
Ki ([3]; ref [44]): 2450 nM
Ki ([8]; ref [44]): > 50000 nM
Ki ([4]; ref [44]): 34 nM
Ki ([5]; ref [44]): 10000 nM

c1cnc2cc3c(cc2n1)[C@@H]1CNC[C@H]3C1 [5 (Var), varenicline]
Ki ([3]; ref [42]): 240 nM
Ki ([8]; ref [42]): 3540 nM
Ki ([4]; ref [42]): 0.06 nM
Ki ([5]; ref [42]): 322 nM

CCN(CC)C(=O)N1C[C@@H]2CNC[C@@H](C2)C1.O=C(O)/C=C/C(=O)O [Compound 42, (1R,5S)-N,N-diethyl-3,7-diazabicyclo[3.3.1]nonane-3-carboxamide]
affinity for the α4β2* subtype in words [2]: lost its affinity

C1NCC2CNCC1C2 [bispidine, 3,7-diazabicyclo[3.3.1]nonane]
functional profile at α7 [6]: weak activation

CN(C)C(=O)N1C[C@@H]2CNC[C@@H](C2)C1.O=C(O)/C=C/C(=O)O [Compound 41, (1R,5S)-N,N-dimethyl-3,7-diazabicyclo[3.3.1]nonane-3-carboxamide]
fold lower affinity for the α4β2* nAChR ([2]; compared to carboxamide analog 17): 10 fold

O=C(O)/C=C/C(=O)O.O=C(c1cccc([N+](=O)[O-])c1)N1C[C@@H]2CNC[C@@H](C2)C1 [Compound 23, (1R,5S)-3,7-diazabicyclo[3.3.1]nonan-3-yl(3-nitrophenyl)methanone]
affinity for the α4β2* subtype in words [2]: inactive

Cl.O=S(=O)(c1ccc(Br)cc1)N1C[C@@H]2CNC[C@@H](C2)C1 [Compound 39, (1R,5S)-3-(4-bromophenylsulfonyl)-3,7-diazabicyclo[3.3.1]nonane]
affinity for the α4β2* subtype in words [2]: nonactive

O=c1c(-c2cccnc2)ccc2n1C[C@@H]1CNC[C@H]2C1 [4 (3PC), 3-(pyridine-3-yl)-cytisine]
Ki ([8]; ref [41],[44],[45]): > 5000 nM

O=[N+]([O-])c1ccc(S(=O)(=O)N2C[C@@H]3CNC[C@@H](C3)C2)cc1 [Compound 40, (1R,5S)-3-(4-nitrophenylsulfonyl)-3,7-diazabicyclo[3.3.1]nonane]
Ki [1]: > 10000 nM

CCCC(=O)N1C[C@@H]2CNC[C@@H](C2)C1.O=C(O)/C=C/C(=O)O [Compound 16, (1R,5S)-1-(3,7-diazabicyclo[3.3.1]nonan-3-yl)butan-1-one]
fold higher affinity for the α4β2* receptor ([2]; α4β2* versus α3β4*): about 74 fold
functional profile at α7 [6]: agonism
functional profile at α3β4* [7]: Possible agonistic effects

O=C(CC1CCCC1)N1C[C@@H]2CNC[C@@H](C2)C1.O=C(O)/C=C/C(=O)O [Compound 55, 1-((1R,5S)-3,7-diazabicyclo[3.3.1]nonan-3-yl)-2-cyclopentylethanone]
functional profile at α7 [6]: apparent antagonistic activity
functional profile at muscle type [9]: apparent antagonistic activity
functional profile at α3β4* [7]: essentially no effect

CCC(=O)N1C[C@@H]2CNC[C@@H](C2)C1.O=C(O)/C=C/C(=O)O [Compound 15, (1R,5S)-1-(3,7-diazabicyclo[3.3.1]nonan-3-yl)propan-1-one]
functional profile at α3β4* [7]: Possible agonistic effects
